Measurements as given in the NIST ThermoML archive (doi:10.1016/j.jct.2005.10.004).
Values joined by “and” are separate entries in the source; they are usually repeats but may differ in a detail not shown here. Identical values can stand only once.

Assay: xn = mol fraction of the nth substance listed
Settings: Gas, Buoyancy - hydrostatic balance with magnetic suspension - one sinker

N#N [nitrogen] + C
Settings	mass density
349.99 K, 14938 kPa, x2 = 0.8	99.2371 kg/m3
349.99 K, 14942 kPa, x2 = 0.8	99.2671 kg/m3
349.99 K, 17029 kPa, x2 = 0.8	112.731 kg/m3
350 K, 1986.4 kPa, x2 = 0.8998	11.9478 kg/m3
350 K, 1986.5 kPa, x2 = 0.8998	11.9485 kg/m3
350 K, 3975.2 kPa, x2 = 0.8998	24.2393 kg/m3
350 K, 5966.2 kPa, x2 = 0.8998	36.8151 kg/m3
350 K, 8018.7 kPa, x2 = 0.8998	49.9871 kg/m3
350 K, 10026 kPa, x2 = 0.8998	62.975 kg/m3
350 K, 12032 kPa, x2 = 0.8998	75.9524 kg/m3
350 K, 12033 kPa, x2 = 0.8998	75.9539 kg/m3
350 K, 13967 kPa, x2 = 0.8998	88.3679 kg/m3
350 K, 13968 kPa, x2 = 0.8998	88.373 kg/m3
350 K, 16066 kPa, x2 = 0.8998	101.591 kg/m3
350 K, 16068 kPa, x2 = 0.8998	101.601 kg/m3
350 K, 16070 kPa, x2 = 0.8998	101.613 kg/m3
350 K, 16189 kPa, x2 = 0.8998	102.36 kg/m3
350 K, 18024 kPa, x2 = 0.8998	113.606 kg/m3
350 K, 19983 kPa, x2 = 0.8998	125.244 kg/m3
350 K, 19984 kPa, x2 = 0.8998	125.244 kg/m3
350.01 K, 8197.7 kPa, x2 = 0.8	54.0918 kg/m3
350.01 K, 8197.9 kPa, x2 = 0.8	54.0933 kg/m3
350.01 K, 10149 kPa, x2 = 0.8	67.2887 kg/m3
350.01 K, 11859 kPa, x2 = 0.8	78.8049 kg/m3
350.01 K, 11862 kPa, x2 = 0.8	78.8216 kg/m3
400 K, 4571.9 kPa, x2 = 0.8	25.5965 kg/m3
400 K, 5986.1 kPa, x2 = 0.8998	31.5654 kg/m3
400 K, 8029.2 kPa, x2 = 0.8998	42.4672 kg/m3
400 K, 9750.2 kPa, x2 = 0.8	54.7419 kg/m3
400 K, 12023 kPa, x2 = 0.8998	63.6651 kg/m3
400 K, 13644 kPa, x2 = 0.8	76.2876 kg/m3
400 K, 14030 kPa, x2 = 0.8998	74.1643 kg/m3
400 K, 18095 kPa, x2 = 0.8998	94.8699 kg/m3
400 K, 18098 kPa, x2 = 0.8998	94.8835 kg/m3
400 K, 19369 kPa, x2 = 0.8998	101.162 kg/m3
400.01 K, 2027.7 kPa, x2 = 0.8998	10.5861 kg/m3
400.01 K, 4038.9 kPa, x2 = 0.8998	21.2078 kg/m3
400.01 K, 4040.2 kPa, x2 = 0.8998	21.2133 kg/m3
400.01 K, 8029.4 kPa, x2 = 0.8998	42.4641 kg/m3
400.01 K, 10035 kPa, x2 = 0.8998	53.1468 kg/m3 and 53.1474 kg/m3
400.01 K, 14024 kPa, x2 = 0.8998	74.1363 kg/m3
400.01 K, 15973 kPa, x2 = 0.8998	84.171 kg/m3
400.01 K, 15985 kPa, x2 = 0.8998	84.2306 kg/m3
400.01 K, 19362 kPa, x2 = 0.8998	101.12 kg/m3
400.07 K, 1968.6 kPa, x2 = 0.8	10.9663 kg/m3
400.07 K, 5054.8 kPa, x2 = 0.8	28.3114 kg/m3
400.07 K, 7579.8 kPa, x2 = 0.8	42.5457 kg/m3
400.07 K, 7586.8 kPa, x2 = 0.8	42.5825 kg/m3
400.07 K, 10122 kPa, x2 = 0.8	56.8069 kg/m3
400.07 K, 10130 kPa, x2 = 0.8	56.8516 kg/m3
400.07 K, 13112 kPa, x2 = 0.8	73.3611 kg/m3
400.07 K, 13116 kPa, x2 = 0.8	73.3802 kg/m3
400.07 K, 13262 kPa, x2 = 0.8	74.1822 kg/m3
400.07 K, 15317 kPa, x2 = 0.8	85.3273 kg/m3
400.07 K, 15324 kPa, x2 = 0.8	85.3629 kg/m3
400.07 K, 17285 kPa, x2 = 0.8	95.7881 kg/m3
400.07 K, 17324 kPa, x2 = 0.8	95.9938 kg/m3
